# Data: paper PMC10266789 (The Journal of Clinical Investigation, 2023)
# pIC50: −log10 of the molar value. Read-outs that look alike come from different tables or passages of the source.
# Tests used:
# [1] = system: Influenza A (strain A/California/07/2009)
# [2] = Host cell cytotoxicity, Calu3; assay type: cell-based; details: Calu3 cells; human Calu3; SARS-CoV-2 assay
# [3] = system: SARS-CoV-2 (strain USA-WA1/2020); details: SARS-CoV-2/human Calu3
# [4] = system: HCMV TB40/E-mCherry-UL99eGFP; assay: HCMV delayed treatment protocol, infected cell area in MRC-5; details: for pIC50: Human betaherpesvirus 5, MRC5, 120 h, 5 days of treatment
# [5] = system: HCMV virions; design: species or system human cytomegalovirus; details: 1 or 5 μM; 96 hours at 37°C
# [6] = system: HCMV TB40/E-mCherry-UL99eGFP; details: Human betaherpesvirus 5, read-out: HCMV virus yield IC50
# [7] = system: HCMV TB40/E; assay: Human lung-only mouse model of HCMV infection; assay type: in vivo, lung-only mice (NSG); details: day 17; TCID50; FLS-359 50 mg/kg p.o. b.i.d.; ganciclovir 100 mg/kg i.p. daily; P < 0.04
# [8] = system: Epstein-Barr virus (EBV; strain Akata); assay: microbe, parasite or virus in culture; details: human gammaherpesvirus 4, Akata, read-out: IC50, Epstein-Barr
# [9] = system: SARS-CoV-2 (strain USA-WA1/2020); assay: microbe, parasite or virus in culture; details: Severe acute respiratory syndrome coronavirus 2, Calu-3, in Homo sapiens, read-out: IC50, SARS-CoV-2
# [10] = system: Betacoronavirus 1 (strain OC43); details: HCoV-OC43/human MRC-5
# [11] = system: HCMV DNA; assay: Intracellular HCMV DNA accumulation by qPCR in MRC-5; assay type: cell-based, human cytomegalovirus; details: 72 hours
# [12] = system: HCMV TB40/E; assay: Mouse gelfoam-fibroblast model of HCMV infection; assay type: in vivo, CIEA NOG mice; details: day 11; TCID50; FLS-359 50 mg/kg p.o. b.i.d.; valganciclovir 50 mg/kg p.o. daily; P < 0.03
# [13] = target: T1, recombinant human SIRT2 (Homo sapiens, UniProt Q8IXJ6); assay: SIRT2 thermal stability (thermal shift) assay; assay type: binding
# T1 sequence (Q8IXJ6 39-352 limits assumed): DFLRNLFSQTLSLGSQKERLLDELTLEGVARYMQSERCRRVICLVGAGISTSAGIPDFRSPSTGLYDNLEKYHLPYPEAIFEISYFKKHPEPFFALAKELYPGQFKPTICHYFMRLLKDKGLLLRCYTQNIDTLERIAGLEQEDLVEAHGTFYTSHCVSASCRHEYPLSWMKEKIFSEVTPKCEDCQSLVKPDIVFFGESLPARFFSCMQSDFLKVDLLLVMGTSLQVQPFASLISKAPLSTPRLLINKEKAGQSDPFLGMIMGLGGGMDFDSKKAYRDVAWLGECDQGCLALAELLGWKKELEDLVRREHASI
# Experimental: SIRT2 underwent thermal denaturation with a midpoint transition temperature (Tm) of approximately 48°C.
# Thermal melt data were collected using custom instrumentation (Fluorescence Innovations), with either 405 nm or 532 nm laser excitation and fluorescence lifetime emission to measure total well fluorescence and fluorescence lifetime as a function of temperature. Data were treated as previously described ([37]) to determine the midpoint transition temperature, Tm.
# [14] = Host cell cytotoxicity, HFF; details: human, HFF cells
# [15] = target: T2, recombinant human SIRT1 (Homo sapiens, UniProt Q96EB6); assay: SIRT deacylase assay, deacetylation of Ac-H3K9WW peptide, mass spectrometry; assay type: biochemical; details: Figure 1C; n = 3
# T2 construct: purified, recombinant SIRT2^2–389, SIRT1^1–747, or SIRT3^1–400 protein (GenScript); purchased GenScript
# T2 sequence (Q96EB6 1-747): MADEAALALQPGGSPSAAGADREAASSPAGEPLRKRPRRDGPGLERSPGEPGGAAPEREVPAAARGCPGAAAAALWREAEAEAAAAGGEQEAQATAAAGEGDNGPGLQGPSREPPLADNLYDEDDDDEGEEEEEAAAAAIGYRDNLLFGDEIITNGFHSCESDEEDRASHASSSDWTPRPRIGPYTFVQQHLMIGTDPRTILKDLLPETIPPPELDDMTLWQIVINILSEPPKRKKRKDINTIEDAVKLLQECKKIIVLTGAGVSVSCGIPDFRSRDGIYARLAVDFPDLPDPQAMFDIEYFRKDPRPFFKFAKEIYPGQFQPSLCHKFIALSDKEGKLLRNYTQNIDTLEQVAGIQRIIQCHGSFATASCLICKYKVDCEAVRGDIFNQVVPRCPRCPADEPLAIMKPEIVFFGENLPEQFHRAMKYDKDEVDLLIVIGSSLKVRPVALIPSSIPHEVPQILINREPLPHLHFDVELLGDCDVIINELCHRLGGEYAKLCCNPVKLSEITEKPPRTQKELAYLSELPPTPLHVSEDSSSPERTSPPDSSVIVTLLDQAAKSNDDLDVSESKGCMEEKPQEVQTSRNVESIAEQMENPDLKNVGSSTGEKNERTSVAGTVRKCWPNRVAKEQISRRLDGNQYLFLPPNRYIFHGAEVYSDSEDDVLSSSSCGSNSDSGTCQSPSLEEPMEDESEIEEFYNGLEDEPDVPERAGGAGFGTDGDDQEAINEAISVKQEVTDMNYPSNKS
structure (smiles),measurement,setting,value
"Cc1cn(-c2ccc3c(c2)CN(c2ncc(Cc4ccc(-n5cccn5)cc4)s2)CC3)c(C)n1 [FLS-359, 7-(2,4-dimethyl-1H-imidazol-1-yl)-2-(5-{[4-(1H-pyrazol-1-yl)phenyl]methyl}-1,3-thiazol-2-yl)-1,2,3,4-tetrahydroisoquinoline]",SI CC50/IC50,[1]; Influenza A/human dNHBE,>83.3
same,"IC90, Influenza A (column headed IC50, footnote C: IC90)",[1]; human dNHBE,1.2^C μM
same,CC50,[2],15800 nM
same,SI CC50/IC50,[3],52.7
same,pIC50,"[4]; read-out: IC50, infected cell area, drug added at 0 hpi, 0.1 IU/cell",6.05
same,pIC50,"[4]; read-out: IC50, infected cell area, drug added at 24 hpi",6.22
same,pIC50,"[4]; read-out: IC50, infected cell area, drug added at 48 hpi",6.10
same,pIC50,"[4]; read-out: IC50, infected cell area, drug added at 72 hpi",6.05
same,pIC50,"[4]; read-out: IC50, infected cell area, drug added at 96 hpi",6.05
same,Maximum Fold-Reduction in infected cell area,[4]; drug added at 0 hpi,11.6
same,Maximum Fold-Reduction in infected cell area,[4]; drug added at 24 hpi,33.4
same,Maximum Fold-Reduction in infected cell area,[4]; drug added at 48 hpi,21.2
same,Maximum Fold-Reduction in infected cell area,[4]; drug added at 72 hpi,17.6
same,Maximum Fold-Reduction in infected cell area,[4]; drug added at 96 hpi,21.8
same,effect of incubating virus stock with drug on infectivity,[5],no significant effect on infectivity
same,pIC50,[6],6.25
same,production of infectious HCMV progeny in human lung implants,[7],significantly reduced the production of infectious HCMV progeny
same,pIC50,[8],5.42
same,pIC50,[9],6.52
same,SI CC50/IC50,[10],>30.1
same,intracellular viral DNA accumulation,[11]; 3 IU/cell,compromised
same,reduction in intracellular viral DNA levels,[11]; Figure 8B,approximately 3 fold
same,virus production in gelfoam implants,[12],significantly reduced virus production
same,increase of SIRT2 Tm,[13]; 6.25 μM,1.4 °C
same,increase of SIRT2 Tm,[13]; 12.5 μM,2.0 °C
same,CC50,[14],41600 nM
same,pIC50,[15],< 4.00
